Laboratory results published in ChEMBL document CHEMBL5055642, “Strobiloscyphones A-F, 6-Isopentylsphaeropsidones and Other Metabolites from Strobiloscypha sp. AZ0266, a Leaf-Associated Fungus of Douglas Fir” (J Nat Prod, 2021).
Values after ≈ are worked out from the molar mass of the structure shown. Active and inactive are the calls of the source. The rule behind the calls is not given here.

Key:
[1] = tested on: PC-3M; assay: Cytotoxicity against human PC-3M cells assessed as inhibition of cell proliferation measured after 72 hrs by resazurin dye based AlamarBlue assay; type: functional
[2] = tested on: SF-268; assay: Cytotoxicity against human SF-268 cells assessed as inhibition of cell proliferation measured after 72 hrs by resazurin dye based AlamarBlue assay; type: functional; conditions: SF-268, 72 h
[3] = tested on: MCF7; assay: Cytotoxicity against human MCF7 cells assessed as inhibition of cell proliferation measured after 72 hrs by resazurin dye based AlamarBlue assay; type: functional; conditions: MCF7, 72 h
[4] = tested on: MDA-MB-231; assay: Cytotoxicity against human MDA-MB-231 cells assessed as inhibition of cell proliferation measured after 72 hrs by resazurin dye based AlamarBlue assay; type: functional; conditions: MDA-MB-231, 72 h
[5] = tested on: NCI-H460; assay: Cytotoxicity against human NCI-H460 cells assessed as inhibition of cell proliferation up to 10 uM measured after 72 hrs by resazurin dye based AlamarBlue assay; type: functional
[6] = tested on: WI-38; assay: Cytotoxicity against human WI-38 cells assessed as inhibition of cell proliferation up to 10 uM measured after 72 hrs by resazurin dye based AlamarBlue assay; conditions: wi-38, 72 h
[7] = tested on: PC-3M; assay: Cytotoxicity against human PC-3M cells assessed as inhibition of cell proliferation up to 10 uM measured after 72 hrs by resazurin dye based AlamarBlue assay; type: functional
[8] = tested on: SF-268; assay: Cytotoxicity against human SF-268 cells assessed as inhibition of cell proliferation up to 10 uM measured after 72 hrs by resazurin dye based AlamarBlue assay; type: functional
[9] = tested on: MCF7; assay: Cytotoxicity against human MCF7 cells assessed as inhibition of cell proliferation up to 10 uM measured after 72 hrs by resazurin dye based AlamarBlue assay; type: functional
[10] = tested on: MDA-MB-231; assay: Cytotoxicity against human MDA-MB-231 cells assessed as inhibition of cell proliferation up to 10 uM measured after 72 hrs by resazurin dye based AlamarBlue assay; type: functional
[11] = tested on: NCI-H460; assay: Cytotoxicity against human NCI-H460 cells assessed as inhibition of cell proliferation measured after 72 hrs by resazurin dye based AlamarBlue assay; type: functional; conditions: NCI-H460, 72 h
[12] = tested on: WI-38; assay: Cytotoxicity against human WI-38 cells assessed as inhibition of cell proliferation measured after 72 hrs by resazurin dye based AlamarBlue assay; conditions: WI-38, 72 h
[13] = tested on: Escherichia coli; assay: Antibacterial activity against Escherichia coli ATCC 25922 assessed as inhibition of bacterial growth incubated for 24 hrs by CLSI method; type: functional
[14] = tested on: Pseudomonas aeruginosa; assay: Antibacterial activity against Pseudomonas aeruginosa ATCC 10197 assessed as inhibition of bacterial growth incubated for 24 hrs by CLSI method; type: functional
[15] = tested on: Staphylococcus aureus; assay: Antibacterial activity against Staphylococcus aureus ATCC 25923 assessed as inhibition of bacterial growth incubated for 24 hrs by CLSI method; type: functional
[16] = tested on: Candida albicans; assay: Antifungal activity against Candida albicans ATCC 10261 assessed as inhibition of fungus growth incubated for 24 hrs by CLSI method; type: functional
[17] = tested on: Pseudomonas aeruginosa; assay: Antibacterial activity against Pseudomonas aeruginosa ATCC 10197 assessed as inhibition of bacterial growth at 25 ug/ml incubated for 24 hrs by CLSI method relative to control; type: functional
[18] = tested on: Escherichia coli; assay: Antibacterial activity against Escherichia coli ATCC 25922 assessed as inhibition of bacterial growth at 12.5 ug/ml incubated for 24 hrs by CLSI method relative to control; type: functional
[19] = tested on: Candida albicans; assay: Antifungal activity against Candida albicans ATCC 10261 assessed as inhibition of fungal growth at 12.5 ug/ml incubated for 24 hrs by CLSI method relative to control; type: functional
[20] = tested on: Candida albicans; assay: Antifungal activity against Candida albicans ATCC 10261 assessed as inhibition of fungal growth at 6.25 ug/ml incubated for 24 hrs by CLSI method relative to control; type: functional
[21] = tested on: Candida albicans; assay: Antifungal activity against Candida albicans ATCC 10261 assessed as inhibition of fungal growth at 100 ug/ml incubated for 24 hrs by CLSI method relative to control; type: functional
[22] = tested on: Candida albicans; assay: Antifungal activity against Candida albicans ATCC 10261 assessed as inhibition of fungal growth at 50 ug/ml incubated for 24 hrs by CLSI method relative to control; type: functional

Compound | IC50 [1] | IC50 [2] | IC50 [3] | IC50 [4] | Activity [5] | Activity [6] | Activity [7] | Activity [8] | Activity [9] | Activity [10] | also measured
COC1=CC(=O)[C@@]2([C@H](C=C(C)C)OC(C)=O)O[C@]3(OC)CC(=O)[C@H]4O[C@H]4[C@]3(O)[C@H]2C1=O | 6 µM | 2.7 µM | 2.9 µM | 6 µM | inactive | Non-Toxic |  |  |  |  | 
COC1=CC(=O)[C@](O)([C@H](C=C(C)C)OC(C)=O)C[C@H]1O |  |  |  |  | inactive | Non-Toxic | inactive | inactive | inactive | inactive | 
COC1=CC(=O)[C@@](O)([C@@H](C=C(C)C)OC(C)=O)CC1=O |  |  |  |  | inactive | Non-Toxic | inactive | inactive | inactive | inactive | 
COC1=CC(=O)[C@@]2([C@@H](O)C=C(C)C)O[C@H]2[C@H]1O |  |  |  |  | inactive | Non-Toxic | inactive | inactive | inactive | inactive | 
COc1cccc2c1C(=O)c1c(O)c3c(c(O)c1C2=O)C[C@@](O)(C(=O)CO)C[C@@H]3O[C@H]1C[C@H](N)[C@H](O)[C@H](C)O1 [DOXORUBICIN] | 0.3 µM |  |  | 0.7 µM |  |  |  |  |  |  | IC50 [11]: 0.1 µM
COC1=C[C@@H](O)[C@H]2O[C@H]2C1=O |  | 1.7 µM | 1.6 µM |  |  |  |  |  |  |  | IC50 [12]: 3.8 µM
COC1=CC(=O)[C@H]2O[C@H]2C1=O | 2.5 µM | 1.2 µM | 1.4 µM | 2.2 µM |  |  |  |  |  |  | IC50 [11]: 2.5 µM; IC50 [12]: 7.8 µM; MBC [13]: 25 mg/L (≈ 162 µM); MIC [13]: 25 mg/L (≈ 162 µM); MIC [14]: 25 mg/L (≈ 162 µM); MIC [15]: 25 mg/L (≈ 162 µM); MFC [16]: 25 mg/L (≈ 162 µM); MIC [16]: 25 mg/L (≈ 162 µM); inhibition at 25 µg/mL [17]: 50%; inhibition at 12.5 µg/mL [18]: 75%; inhibition at 12.5 µg/mL [19]: 75%; inhibition at 6.25 µg/mL [20]: 50%
COC1=CC(=O)[C@H]2O[C@H]2[C@H]1O |  |  |  |  | inactive | Non-Toxic | inactive | inactive | inactive | inactive | inhibition at 100 µg/mL [21]: 75%; inhibition at 50 µg/mL [22]: 50%
COC1=CC(=O)[C@@]2([C@H](O)C=C(C)C)O[C@H]2C1=O | 4.6 µM | 1.3 µM | 1.6 µM | 2.6 µM |  |  |  |  |  |  | IC50 [11]: 4.8 µM; IC50 [12]: 8.3 µM
COC1=CC(=O)C(O)(C(O)CC(C)(C)O)C[C@H]1O (some centres not stated) |  |  |  |  | inactive | Non-Toxic | inactive | inactive | inactive | inactive | 
CCCCCCC(=O)C(O)C(O)/C=C/C=C/C=C\C(=O)O (configuration not stated) |  |  |  |  | inactive | Non-Toxic | inactive | inactive | inactive | inactive | 
